In publication PMC8222254, “Self-assembly of an anion receptor with metal-dependent kinase inhibition and potent in vitro anti-cancer properties” (Nature Communications, 2021):
Several values for one entry are separate records, joined by “and”; a condition that tells them apart may be missing. Equal entries are not always repeated.

Tests used:
Assay in all cases: Kinase inhibition screen, cell-free 33P ATP assay at 10 μM
Type in all cases: biochemical
[1] = target: 140 purified human kinases (Homo sapiens, UniProt Q16644); conditions: for % Activity inhibition Mean / % Activity inhibition Run 1 / % Activity inhibition Run 2 / % Activity remaining Run 1 / % Activity remaining Run 2: 10 µM
Outline: (§1)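 Radiometric ^33P ATP cell-free format with purified enzymes; both complexes run at 10 μM in duplicate, results plotted on a kinome map via HGNC symbols.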

[2] = target: T1, 140 purified human kinases (Homo sapiens, UniProt O14965); conditions: Aurora A
T1 sequence (O14965 1-403): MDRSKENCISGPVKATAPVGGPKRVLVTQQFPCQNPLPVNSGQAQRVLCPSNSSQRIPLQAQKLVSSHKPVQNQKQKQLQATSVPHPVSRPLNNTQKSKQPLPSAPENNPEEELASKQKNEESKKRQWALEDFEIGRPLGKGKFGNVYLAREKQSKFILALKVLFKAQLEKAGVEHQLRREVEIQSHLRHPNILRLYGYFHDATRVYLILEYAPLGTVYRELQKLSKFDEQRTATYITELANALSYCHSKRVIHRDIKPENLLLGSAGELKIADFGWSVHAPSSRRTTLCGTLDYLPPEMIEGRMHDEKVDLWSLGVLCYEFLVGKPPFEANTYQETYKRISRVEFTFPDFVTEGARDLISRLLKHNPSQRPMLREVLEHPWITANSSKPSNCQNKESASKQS
Outline: as §1

Src = target: T2, Src (Homo sapiens, UniProt P12931); conditions: for kinase activity of Src: 10 μM complex, cell-free screen; for % Activity Run 1 / % Activity Run 2: 10 µM
T2 construct: His tag (N); host or cells: baculovirus expression system
Outline: as §1

[3] = target: 140 purified human kinases (Homo sapiens, UniProt P54764)
Outline: as §1

[4] = target: T3, 140 purified human kinases (Homo sapiens, UniProt Q12851); conditions: GCK
T3 sequence (Q12851 1-820): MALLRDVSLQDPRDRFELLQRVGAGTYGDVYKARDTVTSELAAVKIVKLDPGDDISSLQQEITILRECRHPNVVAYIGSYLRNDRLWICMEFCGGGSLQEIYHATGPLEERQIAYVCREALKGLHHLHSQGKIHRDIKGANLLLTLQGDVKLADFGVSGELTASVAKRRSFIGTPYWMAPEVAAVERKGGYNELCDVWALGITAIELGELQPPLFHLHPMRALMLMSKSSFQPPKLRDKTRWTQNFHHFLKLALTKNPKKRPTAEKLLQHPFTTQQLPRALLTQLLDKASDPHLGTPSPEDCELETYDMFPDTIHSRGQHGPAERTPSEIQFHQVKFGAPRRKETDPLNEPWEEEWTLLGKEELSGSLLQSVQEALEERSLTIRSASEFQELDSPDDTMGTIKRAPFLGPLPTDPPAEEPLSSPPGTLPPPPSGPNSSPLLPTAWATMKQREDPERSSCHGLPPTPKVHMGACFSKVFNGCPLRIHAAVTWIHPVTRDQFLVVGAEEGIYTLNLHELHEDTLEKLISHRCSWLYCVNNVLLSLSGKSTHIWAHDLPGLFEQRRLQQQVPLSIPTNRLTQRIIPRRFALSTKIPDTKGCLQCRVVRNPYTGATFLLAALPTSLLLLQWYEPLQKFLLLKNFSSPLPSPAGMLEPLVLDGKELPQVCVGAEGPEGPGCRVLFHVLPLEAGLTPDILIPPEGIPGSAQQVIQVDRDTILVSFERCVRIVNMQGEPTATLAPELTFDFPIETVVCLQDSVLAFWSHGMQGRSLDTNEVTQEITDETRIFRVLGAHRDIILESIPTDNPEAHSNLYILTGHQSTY
Outline: as §1

[5] = target: 140 purified human kinases (Homo sapiens, UniProt P23443)
Outline: as §1

[6] = target: 140 purified human kinases (Homo sapiens, UniProt Q13131); conditions: AMPK (hum); for % Activity inhibition Mean / % Activity inhibition Run 1 / % Activity inhibition Run 2 / % Activity remaining Run 1 / % Activity remaining Run 2: 10 µM
Outline: as §1

Sequence of 140 purified human kinases (Homo sapiens, UniProt P54764) (P54764 20-986): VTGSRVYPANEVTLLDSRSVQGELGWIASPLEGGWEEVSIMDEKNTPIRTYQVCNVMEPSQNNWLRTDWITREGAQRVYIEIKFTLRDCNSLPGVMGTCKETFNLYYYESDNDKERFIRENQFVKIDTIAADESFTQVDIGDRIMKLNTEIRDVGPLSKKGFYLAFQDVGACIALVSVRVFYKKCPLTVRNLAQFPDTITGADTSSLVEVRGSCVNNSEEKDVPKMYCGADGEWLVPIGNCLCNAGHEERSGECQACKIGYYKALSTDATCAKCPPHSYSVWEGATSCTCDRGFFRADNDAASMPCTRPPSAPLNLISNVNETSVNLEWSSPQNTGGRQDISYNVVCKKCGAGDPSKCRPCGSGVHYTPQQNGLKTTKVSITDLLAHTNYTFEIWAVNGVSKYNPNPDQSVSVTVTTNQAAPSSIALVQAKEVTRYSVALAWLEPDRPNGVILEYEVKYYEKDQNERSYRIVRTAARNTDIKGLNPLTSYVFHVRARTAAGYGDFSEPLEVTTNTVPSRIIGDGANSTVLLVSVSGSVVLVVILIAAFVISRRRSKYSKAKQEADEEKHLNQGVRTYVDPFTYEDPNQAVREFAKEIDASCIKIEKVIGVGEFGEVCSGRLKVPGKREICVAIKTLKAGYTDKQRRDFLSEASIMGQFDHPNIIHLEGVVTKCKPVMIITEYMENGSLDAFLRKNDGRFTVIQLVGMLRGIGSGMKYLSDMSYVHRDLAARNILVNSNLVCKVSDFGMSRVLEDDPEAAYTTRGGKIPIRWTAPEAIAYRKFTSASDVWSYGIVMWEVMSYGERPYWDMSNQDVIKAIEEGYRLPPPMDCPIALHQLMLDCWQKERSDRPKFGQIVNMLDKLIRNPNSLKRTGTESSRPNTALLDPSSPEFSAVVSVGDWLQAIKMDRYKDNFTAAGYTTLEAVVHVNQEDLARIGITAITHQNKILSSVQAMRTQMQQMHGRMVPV
Sequence of 140 purified human kinases (Homo sapiens, UniProt Q16644) (Q16644 whole entry): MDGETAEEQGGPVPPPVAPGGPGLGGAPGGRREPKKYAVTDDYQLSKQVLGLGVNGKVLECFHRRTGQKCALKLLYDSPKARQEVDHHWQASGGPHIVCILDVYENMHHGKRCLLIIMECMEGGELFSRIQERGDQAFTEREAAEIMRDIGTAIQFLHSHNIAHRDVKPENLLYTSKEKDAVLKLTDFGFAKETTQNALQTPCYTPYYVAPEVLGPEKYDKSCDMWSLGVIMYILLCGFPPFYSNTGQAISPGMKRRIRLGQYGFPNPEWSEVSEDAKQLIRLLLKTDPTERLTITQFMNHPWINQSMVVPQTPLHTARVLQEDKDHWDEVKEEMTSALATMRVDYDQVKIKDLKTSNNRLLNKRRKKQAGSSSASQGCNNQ
T2 sequence (P12931 whole entry): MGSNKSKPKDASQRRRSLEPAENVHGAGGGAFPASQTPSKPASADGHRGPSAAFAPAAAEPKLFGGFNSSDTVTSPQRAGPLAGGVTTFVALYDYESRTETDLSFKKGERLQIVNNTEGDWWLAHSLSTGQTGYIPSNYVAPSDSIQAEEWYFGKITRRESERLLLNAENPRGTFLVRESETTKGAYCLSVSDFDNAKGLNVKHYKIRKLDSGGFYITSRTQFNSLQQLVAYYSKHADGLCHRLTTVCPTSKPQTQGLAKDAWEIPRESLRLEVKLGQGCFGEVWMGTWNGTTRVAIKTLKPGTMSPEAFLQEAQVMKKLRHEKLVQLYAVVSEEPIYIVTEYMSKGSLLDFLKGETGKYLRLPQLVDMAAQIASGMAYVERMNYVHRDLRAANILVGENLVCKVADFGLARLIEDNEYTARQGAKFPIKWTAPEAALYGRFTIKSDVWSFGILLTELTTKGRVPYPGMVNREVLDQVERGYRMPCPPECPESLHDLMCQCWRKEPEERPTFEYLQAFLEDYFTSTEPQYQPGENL
Sequence of 140 purified human kinases (Homo sapiens, UniProt Q13131) (Q13131 whole entry): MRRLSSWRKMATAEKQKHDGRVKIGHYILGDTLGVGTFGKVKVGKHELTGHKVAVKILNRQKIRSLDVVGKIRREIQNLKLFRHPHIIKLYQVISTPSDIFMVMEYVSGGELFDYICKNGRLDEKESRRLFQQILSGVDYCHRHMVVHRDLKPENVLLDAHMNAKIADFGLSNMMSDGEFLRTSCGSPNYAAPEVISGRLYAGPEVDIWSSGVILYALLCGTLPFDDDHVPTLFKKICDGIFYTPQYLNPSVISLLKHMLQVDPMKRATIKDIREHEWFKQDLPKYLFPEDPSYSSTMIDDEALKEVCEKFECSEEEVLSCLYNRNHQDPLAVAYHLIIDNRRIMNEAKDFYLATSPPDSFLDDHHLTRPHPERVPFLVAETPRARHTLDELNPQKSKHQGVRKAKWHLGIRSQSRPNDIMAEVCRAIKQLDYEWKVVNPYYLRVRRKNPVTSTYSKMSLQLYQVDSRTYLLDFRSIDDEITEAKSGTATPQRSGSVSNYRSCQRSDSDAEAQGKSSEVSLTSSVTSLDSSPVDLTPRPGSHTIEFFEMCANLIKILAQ
Sequence of 140 purified human kinases (Homo sapiens, UniProt P23443) (P23443 whole entry): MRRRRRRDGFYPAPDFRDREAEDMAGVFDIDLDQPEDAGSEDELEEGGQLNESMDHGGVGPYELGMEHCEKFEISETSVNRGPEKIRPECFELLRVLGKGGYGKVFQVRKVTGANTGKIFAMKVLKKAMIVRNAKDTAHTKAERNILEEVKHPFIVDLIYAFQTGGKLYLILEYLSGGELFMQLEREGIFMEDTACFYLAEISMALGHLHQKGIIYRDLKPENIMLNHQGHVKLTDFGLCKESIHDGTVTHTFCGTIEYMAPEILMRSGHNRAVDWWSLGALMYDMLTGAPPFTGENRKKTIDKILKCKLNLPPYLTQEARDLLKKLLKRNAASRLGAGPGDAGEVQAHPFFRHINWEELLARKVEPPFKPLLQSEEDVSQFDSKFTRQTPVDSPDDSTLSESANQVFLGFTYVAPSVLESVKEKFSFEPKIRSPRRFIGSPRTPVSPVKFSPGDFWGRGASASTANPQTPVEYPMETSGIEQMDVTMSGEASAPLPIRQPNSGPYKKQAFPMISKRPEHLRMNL

`[Cu+2].[Cu+2].[Cu+2].c1ccc(-c2csc(NCCN(CCNc3nc(-c4ccccn4)cs3)CCNc3nc(-c4ccccn4)cs3)n2)nc1.c1ccc(-c2csc(NCCN(CCNc3nc(-c4ccccn4)cs3)CCNc3nc(-c4ccccn4)cs3)n2)nc1` [[L2Cu3]6+] was tested, and the “% Inhibition Run 1” value ([1]; MAPKAP-K3) was 98.5%, the “% Inhibition Run 2” value ([1]; MAPKAP-K3) was 89.3% and the “% Inhibition, Mean” value ([1]; MAPKAP-K3) was 94%. The mean % activity ([1]; MAPKAP-K3) was 6%, the “% activity” value ([1]; MAPKAP-K3, Run 1) was 1.5% and the “% activity” value ([1]; MAPKAP-K3, Run 2) was 10.7%. For the same compound, the “% Activity inhibition Mean” value ([1]; MAPKAP-K3) was 93.9%, the “% Activity inhibition Run 1” value ([1]; MAPKAP-K3) was 98.5% and the “% Activity inhibition Run 2” value ([1]; MAPKAP-K3) was 89.3%. For the same compound, the “% Activity remaining Run 1” value ([1]; MAPKAP-K3) was 1.50%, the “% Activity remaining Run 2” value ([1]; MAPKAP-K3) was 10.70% and the “% Inhibition Run 1” value [2] was 30.9%. The “% Inhibition Run 2” value [2] was 28.1%, the “% Inhibition, Mean” value [2] was 30% and the mean % activity [2] was 71%. The “% activity” value ([2]; Run 1) was 69.1%, the “% activity” value ([2]; Run 2) was 71.9% and the “kinase activity of Src” value (Src) was “increased”. For the same compound, the “% Activation, Mean value” (Src; Src) was 115%, the “% Inhibition Run 1” value (Src; Src) was -109.2% and the “% Inhibition Run 2” value (Src; Src) was -121.7%. For the same compound, the “% Inhibition, Mean” value (Src; Src) was -115%, the mean % activity (Src; Src) was 215% and the “% activity” value (Src; Src, Run 1) was 209.2%. The “% activity” value (Src; Src, Run 2) was 221.7%, the “% Activity Run 1” value (Src; Src) was 209.20% and the “% Activity Run 2” value (Src; Src) was 221.70%. For the same compound, the “% Inhibition Run 1” value ([3]; EPH-A4) was 4.5%, the “% Inhibition Run 2” value ([3]; EPH-A4) was -3.1% and the “% Inhibition, Mean” value ([3]; EPH-A4) was 0.7%. The mean % activity ([3]; EPH-A4) was 99%, the “% activity” value ([3]; EPH-A4, Run 1) was 95.5% and the “% activity” value ([3]; EPH-A4, Run 2) was 103.1%. The “% Inhibition Run 1” value [4] was 83.9%, the “% Inhibition Run 2” value [4] was 84.3% and the “% Inhibition, Mean” value [4] was 84%. For the same compound, the mean % activity [4] was 16%, the “% activity” value ([4]; Run 1) was 16.1% and the “% activity” value ([4]; Run 2) was 15.7%. The “% Inhibition Run 1” value ([5]; S6K1) was 79%, the “% Inhibition Run 2” value ([5]; S6K1) was 89.6% and the “% Inhibition, Mean” value ([5]; S6K1) was 84%. The mean % activity ([5]; S6K1) was 16%, the “% activity” value ([5]; S6K1, Run 1) was 21% and the “% activity” value ([5]; S6K1, Run 2) was 10.4%. For the same compound, the “% Inhibition Run 1” value [6] was 97.2%, the “% Inhibition Run 2” value [6] was 98.1% and the “% Inhibition, Mean” value [6] was 98%. For the same compound, the mean % activity [6] was 2.35%, the “% activity” value ([6]; Run 1) was 2.8% and the “% activity” value ([6]; Run 2) was 1.9%. The “% Activity inhibition Mean” value [6] was 97.7%, the “% Activity inhibition Run 1” value [6] was 97.2% and the “% Activity inhibition Run 2” value [6] was 98.1%. The “% Activity remaining Run 1” value [6] was 2.80% and the “% Activity remaining Run 2” value [6] was 1.90%.

With `CC(=O)[O-].CC(=O)[O-].CC(=O)[O-].CC(=O)[O-].CC(=O)[O-].CC(=O)[O-].[Zn+2].[Zn+2].[Zn+2].c1ccc(-c2csc(NCCN(CCNc3nc(-c4ccccn4)cs3)CCNc3nc(-c4ccccn4)cs3)n2)nc1.c1ccc(-c2csc(NCCN(CCNc3nc(-c4ccccn4)cs3)CCNc3nc(-c4ccccn4)cs3)n2)nc1` [[L2Zn3]6+] the “% Inhibition, Mean” value ([1]; MAPKAP-K3) was 93%, the “% Inhibition, Run 1 / Run 2” value ([1]; MAPKAP-K3) was 94% and 92% and the mean % activity ([1]; MAPKAP-K3) was 6.6%. For the same compound, the “% Activity inhibition Mean” value ([1]; MAPKAP-K3) was 93.0%, the “% Activity inhibition Run 1” value ([1]; MAPKAP-K3) was 94% and the “% Activity inhibition Run 2” value ([1]; MAPKAP-K3) was 92%. For the same compound, the “% Activity remaining Run 1” value ([1]; MAPKAP-K3) was 6%, the “% Activity remaining Run 2” value ([1]; MAPKAP-K3) was 8% and the “% activity” value ([1]; MAPKAP-K3, duplicate runs) was 5.6% and 7.6%. The “% Inhibition, Mean” value [2] was 83%, the “% Inhibition, Run 1 / Run 2” value [2] was 84% and 83% and the mean % activity [2] was 17%. The “% Activity inhibition Mean” value ([2]; 10 µM) was 83.5%, the “% Activity inhibition Run 1” value ([2]; 10 µM) was 84% and the “% Activity inhibition Run 2” value ([2]; 10 µM) was 83%. The “% Activity remaining Run 1” value ([2]; 10 µM) was 16%, the “% Activity remaining Run 2” value ([2]; 10 µM) was 17% and the “% activity” value ([2]; duplicate runs) was 16% and 17%. For the same compound, the “kinase activity of Src” value (Src) was “increased”, the “% Activation, Mean value” (Src; Src) was 75% and the “% Inhibition, Mean” value (Src; Src) was -75%. For the same compound, the mean % activity (Src; Src) was 175%, the “% Activity Run 1” value (Src; Src) was 169.0% and the “% Activity Run 2” value (Src; Src) was 180.0%. The “% activity” value (Src; Src, duplicate runs) was 169% and 180%, the “% Inhibition, Mean” value ([3]; EPH-A4) was 27% and the “% Inhibition, Run 1 / Run 2” value ([3]; EPH-A4) was 30% and 25%. For the same compound, the mean % activity ([3]; EPH-A4) was 73%, the “% activity” value ([3]; EPH-A4, duplicate runs) was 70% and 75% and the “% Inhibition, Mean” value [4] was 83%. The “% Inhibition, Run 1 / Run 2” value [4] was 88% and 78%, the mean % activity [4] was 17% and the “% Activity inhibition Mean” value ([4]; 10 µM) was 83.0%. The “% Activity inhibition Run 1” value ([4]; 10 µM) was 88%, the “% Activity inhibition Run 2” value ([4]; 10 µM) was 78% and the “% Activity remaining Run 1” value ([4]; 10 µM) was 12%. For the same compound, the “% Activity remaining Run 2” value ([4]; 10 µM) was 22%, the “% activity” value ([4]; duplicate runs) was 12% and 22% and the “% Inhibition, Mean” value ([5]; S6K1) was 42%. The mean % activity ([5]; S6K1) was 58%, the “% activity” value ([5]; S6K1, duplicate runs) was 43% and 74% and the “% Inhibition, Mean” value [6] was 93%. The “% Inhibition, Run 1 / Run 2” value [6] was 94% and 92%, the mean % activity [6] was 7% and the “% Activity inhibition Mean” value [6] was 93.0%. The “% Activity inhibition Run 1” value [6] was 94%, the “% Activity inhibition Run 2” value [6] was 92% and the “% Activity remaining Run 1” value [6] was 6%. The “% Activity remaining Run 2” value [6] was 8% and the “% activity” value ([6]; duplicate runs) was 6.4% and 8%.
